Results published in patent US9776991B2, “Thienomethylpiperazine derivatives as inhibitors of soluble epoxide hydrolase” (SANOFI, priority 2013, dated 2017).
Structures can show the parent of a compound that is named as a salt.

molecular target: recombinant sEH (soluble epoxide hydrolase, EPHX2) (Homo sapiens (Human), UniProt P34913); assay: biochemical fluorometric sEH inhibition assay with Phome substrate; settings: recombinant sEH purified from Sf9 insect cells, 2 nM sEH, 5 μM Phome, 60 minutes at 30° C.
Sequence (P34913 whole entry): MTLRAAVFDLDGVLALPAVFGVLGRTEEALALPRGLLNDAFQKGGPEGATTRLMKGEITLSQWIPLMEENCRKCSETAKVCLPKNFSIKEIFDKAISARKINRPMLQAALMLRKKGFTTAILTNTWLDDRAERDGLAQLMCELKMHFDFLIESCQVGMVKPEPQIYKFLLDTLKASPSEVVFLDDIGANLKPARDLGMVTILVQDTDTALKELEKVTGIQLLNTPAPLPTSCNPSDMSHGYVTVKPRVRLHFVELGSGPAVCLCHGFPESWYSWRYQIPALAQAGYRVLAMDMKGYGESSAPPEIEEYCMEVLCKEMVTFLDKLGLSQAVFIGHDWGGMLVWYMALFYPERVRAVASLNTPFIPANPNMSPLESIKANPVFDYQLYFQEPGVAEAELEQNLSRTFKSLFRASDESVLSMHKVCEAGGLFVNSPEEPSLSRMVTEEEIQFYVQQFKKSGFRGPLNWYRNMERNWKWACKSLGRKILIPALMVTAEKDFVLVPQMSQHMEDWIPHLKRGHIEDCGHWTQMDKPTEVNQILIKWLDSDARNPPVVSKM
Protocol: Compounds were tested in a biochemical screening assay using recombinant sEH purified from Sf9 insect cells and an artificial substrate, (3-phenyl-oxiranyl)-acetic acid cyano-(6-methoxy-naphtalen-2-yl)-methyl ester, Phome. The biochemical assay was performed in analogy to a fluorometric described in the literature (P. D. Jones et al., Anal. Biochem. 2005, 343, 66-75). The assay principle bases on the sEH-catalyzed hydrolysis of an artificial α-cyano-ester substrate. O-deacetylation liberates a cyanohydrin intermediate that rapidly decomposes to the highly fluorescent 6-methoxy-2-naphtaldehyde. To discriminate sample autofluorescence, the assay was carried out as a kinetic measurement with two time points. The first measurement is performed immediately before addition of the substrate and the […] measurement is done after completion of the assay. The assay format is either in 96- or in 384-well format.
Details of the assay using a 96-well plate format are described below. 40 μl recombinant sEH enzyme and 5 μl test compound are pre-incubated for 15 minutes at 30° C. Following pre-incubation, the reaction is started by addition of 5 μl Phome. The assay mixture containing 2 nM final sEH concentration, test compound ranging in a concentration from 0.0001-10 μM and 5 μM Phome is incubated for 60 minutes at 30° C.
Fluorescence is measured with any suitable detector for instance a TECAN Safire or Tecan Ultra at […]. % inhibition of recombinant sEH activity is used for calculation of corresponding IC50 values as illustrated and described in the examples.
The NCBI gene bank reference sequence with the accession number NM_001979 for EPHX2/sEH was applied for recombinant protein production:
The following commercially available materials have been used: • Incubation reagent: 25 mM Hepes (Sigma-Aldrich, Cat. No H-3375), 0.01% bovine albumin (Sigma-Aldrich Cat. No PA9205) • Substrate: 3-Phenyl-oxiranyl)-acetic acid cyano-(6-methoxy-naphtalen-2-yl)-methyl ester, Phome (Biozol Cat. No 10003134) • Microtiter plates: 96-well plates (Greiner Cat. No 655180; Costar Cat. No 3915)

Structure (SMILES) | IC50
O=C(NCc1ccc(Cl)cc1Cl)c1ccc(CN2CCN(C(=O)C3Cc4ccccc43)CC2)s1 (centres unmarked) [Example 70] | 2.62 nM
O=C(NCc1ccccc1C(F)(F)F)c1ccc(CN2CCN(C(=O)Cc3cccc(C(F)(F)F)c3)CC2)s1 [Example 31] | 0.758 nM
O=C(NCc1ccccc1OC(F)(F)F)c1ccc(CN2CCN(C(=O)C3COCCN3)CC2)s1 (centres unmarked) [Example 49] | 2.68 nM
COc1ncccc1C(=O)N1CCN(Cc2ccc(C(=O)NCc3ccc(Cl)cc3Cl)s2)CC1 [Example 7] | 0.524 nM
O=C(NCc1ccccc1C(F)(F)F)c1ccc(CN2CCN(C(=O)c3cccnc3)CC2)s1 [Example 4] | 0.168 nM
O=C(NCc1ccccc1C(F)(F)F)c1ccc(CN2CCN(C(=O)Cc3ccccc3Cl)CC2)s1 [Example 3] | 0.407 nM
CC(C)CCNC(=O)c1ccc(CN2CCN(C(=O)[C@@H]3C[C@H]3c3ccccc3)CC2)s1 [Example 5] | 0.432 nM
Cc1cc(=O)oc(C)c1C(=O)N1CCN(Cc2ccc(C(=O)NCc3cccc(Cl)c3Cl)s2)CC1 [Example 91] | 1.42 nM
O=C(NCc1ccccc1C(F)(F)F)c1ccc(CN2CCN(C(=O)COc3ccccc3)CC2)s1 [Example 17] | 0.699 nM
O=C(NCc1ccccc1OC(F)(F)F)c1ccc(CN2CCN(c3ccc(O)nn3)CC2)s1 [Example 136] | 2.13 nM
Cc1cc(C(=O)NCc2cccc3c2OCCO3)sc1CN1CCN(C(=O)c2c(C)cc(=O)oc2C)CC1 [Example 29] | 0.803 nM
Cc1noc(C)c1CC(=O)N1CCN(Cc2ncc(C(=O)NCc3ccc(Cl)cc3Cl)s2)CC1 [Example 165] | 9.61 nM
COC(C)(C)C(=O)N1CCN(Cc2ncc(C(=O)NCc3ccc(Cl)cc3Cl)s2)CC1 [Example 207] | 6.31 nM
CO[C@H](C)C(=O)N1CCN(Cc2ncc(C(=O)NCc3ccc(Cl)cc3Cl)s2)CC1 [Example 204] | 18.8 nM
CC(O)C(=O)N1CCN(Cc2ncc(C(=O)NCc3ccc(Cl)cc3Cl)s2)CC1 (centres unmarked) [Example 189] | 28.9 nM
Cn1cccc1C(=O)N1CCN(Cc2ccc(C(=O)NCc3ccc(Cl)cc3Cl)s2)CC1 [Example 130] | 1.73 nM
CCOc1ccccc1C(=O)N1CCN(Cc2ccc(C(=O)NCCC(C)C)s2)CC1 [Example 118] | 1.72 nM
C[C@@H](O)C(=O)N1CCN(Cc2ccc(C(=O)N(Cc3ccccc3)OC(F)(F)F)s2)CC1 [Example 1] | 0.122 nM
O=C(NCc1ccccc1OC(F)(F)F)c1ccc(CN2CCN(C(=O)c3ncccc3O)CC2)s1 [Example 82] | 2.37 nM
COCC1(C(=O)N2CCN(Cc3ncc(C(=O)NCc4ccc(Cl)cc4Cl)s3)CC2)CC1 [Example 205] | 5.7 nM
COc1cc(CNC(=O)c2ccc(CN3CCN(C(=O)c4c(C)cc(=O)oc4C)CC3)s2)ccn1 [Example 34] | 0.906 nM
O=C(NCc1ccc(Cl)cc1Cl)c1ccc(CN2CCN(C3CCCC3)C(=O)C2)s1 [Example 84] | 2.35 nM
NC1(C(=O)N2CCN(Cc3ccc(C(=O)NCc4ccc(Cl)cc4Cl)s3)CC2)CCOCC1 [Example 133] | 2.14 nM
O=C(NCc1ccc(Cl)cc1Cl)c1ccc(CN2CCN(C(=O)c3cccnc3)CC2)s1 [Example 89] | 1.4 nM
O=C(NCc1ccccc1OC(F)(F)F)c1ccc(CN2CCN(CCO)CC2)s1 [Example 125] | 1.68 nM
O=C(NCc1ccc(Cl)cc1Cl)c1cnc(CN2CCN(C(=O)C3CCO3)CC2)s1 (centres unmarked) [Example 208] | 9.67 nM

Structure (SMILES) | IC50
O=C(NCc1ccccc1OC(F)(F)F)c1ccc(CN2CCN(c3ccc(CO)cn3)CC2)s1 [Example 87] | 2.41 nM
Cc1noc(C)c1C(=O)N1CCN(Cc2ncc(C(=O)NCc3ccc(Cl)cc3Cl)s2)CC1 [Example 160] | 1.41 nM
CC(O)CC(=O)N1CCN(Cc2ccc(C(=O)NCc3ccccc3OC(F)(F)F)s2)CC1 (centres unmarked) [Example 92] | 1.39 nM
Cc1cccnc1C(=O)N1CCN(Cc2ncc(C(=O)NCc3ccc(Cl)cc3Cl)s2)CC1 [Example 194] | 32 nM
Cc1cc(=O)oc(C)c1C(=O)N1CCN(Cc2ccc(C(=O)NCc3ccc(Cl)cc3F)s2)CC1 [Example 60, 5-[4-(2,4-Dimethyl-6-oxo-6H-pyran-3-carbonyl)-piperazin-1-ylmethyl]-thiophene-2-carboxylic acid 4-chloro-2-fluoro-benzylamide] | 1.1 nM
O=C(NCc1ccccc1C(F)(F)F)c1ccc(CN2CCN(C(=O)c3nccc4ccccc34)CC2)s1 [Example 45] | 2.67 nM
NC1(C(=O)N2CCN(Cc3ccc(C(=O)NCc4ccccc4OC(F)(F)F)s3)CC2)CCOCC1 [Example 145] | 1.88 nM
O=C(NCc1ccc(Cl)cc1Cl)c1cnc(CN2CCN(C(=O)CN3C[C@@H](O)CC3=O)CC2)s1 [Example 210] | 52.4 nM
CSCCC(=O)N1CCN(Cc2ncc(C(=O)NCc3ccc(Cl)cc3Cl)s2)CC1 [Example 164] | 11.4 nM
O=C1CCC(C(=O)N2CCN(Cc3ccc(C(=O)NCc4ccccc4OC(F)(F)F)s3)CC2)N1 (centres unmarked) [Example 102] | 2.33 nM
Cc1noc(C)c1C(=O)N1CCN(Cc2ccc(C(=O)NCc3ccccc3C(F)(F)F)s2)CC1 [Example 88] | 1.44 nM
CN(C)CCC(=O)N1CCN(Cc2ncc(C(=O)NCc3ccc(Cl)cc3Cl)s2)CC1 [Example 199] | 208 nM
NC(CF)C(=O)N1CCN(Cc2ccc(C(=O)NCc3ccccc3OC(F)(F)F)s2)CC1 (centres unmarked) [Example 144] | 1.79 nM
CC(C(=O)N1CCN(Cc2ccc(C(=O)NCc3ccc(Cl)cc3Cl)s2)CC1)c1ccccc1 (centres unmarked) [Example 63] | 1.21 nM
O=C(NCc1ccc(Cl)cc1Cl)c1cnc(CN2CCN(C(=O)C3(O)CC3)CC2)s1 [Example 201] | 6.37 nM
CC(O)C(=O)N1CCN(Cc2ccc(C(=O)NCc3ccccc3OC(F)(F)F)s2)CC1 (centres unmarked) [Example 155] | 1.99 nM
Cc1cnc(C)c(N2CCN(Cc3ccc(C(=O)NCc4ccccc4OC(F)(F)F)s3)CC2)n1 [Example 26] | 2.75 nM
O=C(NCc1ccccc1OC(F)(F)F)c1ccc(CN2CCN(C(=O)c3c[nH]cnc3=O)CC2)s1 [Example 107] | 2.26 nM
O=C(NCc1ccc(Cl)cc1Cl)c1cnc(CN2CCN(C(=O)C3CCC(O)C3)CC2)s1 (centres unmarked) [Example 209] | 3.49 nM
CNC(=O)c1cccnc1N1CCN(Cc2ccc(C(=O)NCc3ccc(Cl)cc3Cl)s2)CC1 [Example 14] | 2.93 nM
CC(C)(O)C(=O)N1CCN(Cc2ncc(C(=O)NCc3ccc(Cl)cc3Cl)s2)CC1 [Example 172] | 10.8 nM
Cc1cc(=O)oc(C)c1C(=O)N1CCN(Cc2ccc(C(=O)NCc3ccc(Cl)cc3Cl)s2)CC1 [Example 59] | 1.15 nM
O=C(NCc1ccccc1OC(F)(F)F)c1ccc(CN2CCN(C(=O)c3cccc(O)n3)CC2)s1 [Example 132] | 2.09 nM
Cc1cc(C(=O)NCCC(C)(C)C)sc1CN1CCN(C(=O)c2c(C)cc(=O)oc2C)CC1 [Example 159] | 0.8 nM
Cc1cc(=O)oc(C)c1C(=O)N1CCN(Cc2ccc(C(=O)NCc3ccc(C(F)(F)F)cc3)s2)CC1 [Example 33] | 0.906 nM
Cc1cc(=O)oc(C)c1C(=O)N1CCN(Cc2ncc(C(=O)NCc3ccc(Cl)cc3Cl)s2)CC1 [Example 162] | 12.2 nM

same assay, conditions: recombinant sEH purified from Sf9 insect cells, 2 nM sEH, 5 μM Phome, 60 minutes at 30° C.; trifluoroacetate

Structure (SMILES) | IC50
CC(O)C(=O)N1CCN(Cc2ccc(C(=O)NCc3ccccc3OC(F)(F)F)s2)CC1 (centres unmarked) [Example 54, 5-[4-(2-Hydroxy-propionyl)-piperazin-1-ylmethyl]-thiophene-2-carboxylic acid 2-trifluoromethoxy-benzylamide, trifluoroacetate] | 0.976 nM
